Results as given in publication PMC5862592, “CDK8/19 inhibition induces premature G1/S transition and ATR-dependent cell death in prostate cancer cells” (Oncotarget, 2018).
Like-named read-outs stand apart in the source and are kept apart here.

Experiments:
Assay in all cases: biochemical
Design in all cases: KINOMEscan active site-directed competition binding assay (DiscoveRx), 456 kinases, per cent of control at 300 nM
Conditions in all cases: read-out: Percent of Control (%)
AAK1 = AAK1 (Homo sapiens, UniProt Q2M2I8)
How it was run: (§1)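 Each compound is tested at 300 nmol/L against a panel of 456 kinases. Interaction is quantified by competition for the kinase active site.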

BMPR2 = BMPR2 (Homo sapiens, UniProt Q13873)
How it was run: as §1

CAMK1D = CAMK1D (Homo sapiens, UniProt Q8IU85)
How it was run: as §1

CAMK2A = CAMK2A (Homo sapiens, UniProt Q9UQM7)
How it was run: as §1

CDK4-cyclinD3 = target: T1, CDK4-cyclinD3 (Homo sapiens, UniProt P11802)
T1 construct: cyclinD3
How it was run: as §1

CTK = target: T2, CTK (Homo sapiens, UniProt P42679)
T2 construct: gene MATK
How it was run: as §1

DCAMKL3 = target: T3, DCAMKL3 (Homo sapiens, UniProt Q9C098)
T3 construct: gene DCLK3
How it was run: as §1

DRAK1 = target: T4, DRAK1 (Homo sapiens, UniProt Q9UEE5)
T4 construct: gene STK17A
How it was run: as §1

EPHA1 = EPHA1 (Homo sapiens, UniProt P21709)
How it was run: as §1

FAK = target: T5, FAK (Homo sapiens, UniProt Q05397)
T5 construct: gene PTK2
How it was run: as §1

FGFR3(G697C) = FGFR3(G697C) (Homo sapiens, UniProt P22607, G697C)
How it was run: as §1

GSK3A = GSK3A (Homo sapiens, UniProt P49840)
How it was run: as §1

IKK-alpha = target: T6, IKK-alpha (Homo sapiens, UniProt O15111)
T6 construct: gene CHUK
How it was run: as §1

KIT(V559D) = KIT(V559D) (Homo sapiens, UniProt P10721, V559D)
How it was run: as §1

LATS1 = LATS1 (Homo sapiens, UniProt O95835)
How it was run: as §1

MET(Y1235D) = MET(Y1235D) (Homo sapiens, UniProt P08581, Y1235D)
How it was run: as §1

MYO3B = MYO3B (Homo sapiens, UniProt Q8WXR4)
How it was run: as §1

PYK2 = target: T7, PYK2 (Homo sapiens, UniProt Q14289)
T7 construct: gene PTK2B
How it was run: as §1

RIPK5 = target: T8, RIPK5 (Homo sapiens, UniProt Q6XUX3)
T8 construct: gene DSTYK
How it was run: as §1

TAOK1 = TAOK1 (Homo sapiens, UniProt Q7L7X3)
How it was run: as §1

TAOK3 = TAOK3 (Homo sapiens, UniProt Q9H2K8)
How it was run: as §1

WNK1 = WNK1 (Homo sapiens, UniProt Q9H4A3)
How it was run: as §1

T7 sequence (Q14289 whole entry): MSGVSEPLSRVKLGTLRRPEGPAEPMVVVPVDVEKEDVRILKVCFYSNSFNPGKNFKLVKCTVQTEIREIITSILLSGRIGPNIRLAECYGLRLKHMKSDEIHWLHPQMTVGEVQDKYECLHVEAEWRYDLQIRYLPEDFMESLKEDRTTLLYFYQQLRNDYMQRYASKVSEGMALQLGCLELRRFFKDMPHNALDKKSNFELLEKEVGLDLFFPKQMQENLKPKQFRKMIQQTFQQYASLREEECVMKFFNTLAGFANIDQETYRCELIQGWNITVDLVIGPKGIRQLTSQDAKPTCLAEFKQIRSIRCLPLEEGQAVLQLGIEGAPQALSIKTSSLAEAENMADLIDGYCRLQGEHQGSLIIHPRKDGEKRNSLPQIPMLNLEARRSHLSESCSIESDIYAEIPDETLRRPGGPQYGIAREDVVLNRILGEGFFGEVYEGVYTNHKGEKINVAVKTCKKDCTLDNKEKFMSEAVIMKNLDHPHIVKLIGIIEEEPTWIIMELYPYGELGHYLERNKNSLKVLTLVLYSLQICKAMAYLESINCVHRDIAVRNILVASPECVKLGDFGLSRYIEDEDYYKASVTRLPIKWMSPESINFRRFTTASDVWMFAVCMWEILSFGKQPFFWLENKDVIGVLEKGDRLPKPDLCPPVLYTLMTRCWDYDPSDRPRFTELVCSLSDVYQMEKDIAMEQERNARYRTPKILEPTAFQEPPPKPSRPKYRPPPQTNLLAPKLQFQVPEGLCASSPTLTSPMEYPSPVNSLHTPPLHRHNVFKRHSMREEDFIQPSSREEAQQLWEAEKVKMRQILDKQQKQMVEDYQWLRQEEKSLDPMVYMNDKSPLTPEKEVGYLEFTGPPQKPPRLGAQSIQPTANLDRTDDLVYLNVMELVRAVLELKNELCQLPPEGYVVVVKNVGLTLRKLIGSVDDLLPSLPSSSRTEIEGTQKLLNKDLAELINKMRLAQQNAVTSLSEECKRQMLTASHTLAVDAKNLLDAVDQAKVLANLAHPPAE
T3 sequence (Q9C098 whole entry): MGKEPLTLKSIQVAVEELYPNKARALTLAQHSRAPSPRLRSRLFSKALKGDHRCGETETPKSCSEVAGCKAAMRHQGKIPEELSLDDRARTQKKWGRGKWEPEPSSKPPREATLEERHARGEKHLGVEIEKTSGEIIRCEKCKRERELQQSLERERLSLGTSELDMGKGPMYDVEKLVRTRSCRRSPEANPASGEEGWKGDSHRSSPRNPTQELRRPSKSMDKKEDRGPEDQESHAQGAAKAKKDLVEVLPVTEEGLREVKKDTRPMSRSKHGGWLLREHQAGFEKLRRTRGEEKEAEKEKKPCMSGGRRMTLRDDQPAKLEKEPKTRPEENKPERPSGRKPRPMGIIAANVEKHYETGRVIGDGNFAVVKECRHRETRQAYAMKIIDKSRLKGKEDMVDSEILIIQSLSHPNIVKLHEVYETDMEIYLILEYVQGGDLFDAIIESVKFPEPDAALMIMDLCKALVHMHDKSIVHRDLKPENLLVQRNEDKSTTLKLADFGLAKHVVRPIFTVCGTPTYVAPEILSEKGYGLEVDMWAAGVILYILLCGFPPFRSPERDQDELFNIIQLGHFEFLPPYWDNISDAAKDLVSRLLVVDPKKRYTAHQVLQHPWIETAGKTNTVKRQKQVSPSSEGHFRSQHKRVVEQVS
Sequence of MYO3B (Q8WXR4 whole entry): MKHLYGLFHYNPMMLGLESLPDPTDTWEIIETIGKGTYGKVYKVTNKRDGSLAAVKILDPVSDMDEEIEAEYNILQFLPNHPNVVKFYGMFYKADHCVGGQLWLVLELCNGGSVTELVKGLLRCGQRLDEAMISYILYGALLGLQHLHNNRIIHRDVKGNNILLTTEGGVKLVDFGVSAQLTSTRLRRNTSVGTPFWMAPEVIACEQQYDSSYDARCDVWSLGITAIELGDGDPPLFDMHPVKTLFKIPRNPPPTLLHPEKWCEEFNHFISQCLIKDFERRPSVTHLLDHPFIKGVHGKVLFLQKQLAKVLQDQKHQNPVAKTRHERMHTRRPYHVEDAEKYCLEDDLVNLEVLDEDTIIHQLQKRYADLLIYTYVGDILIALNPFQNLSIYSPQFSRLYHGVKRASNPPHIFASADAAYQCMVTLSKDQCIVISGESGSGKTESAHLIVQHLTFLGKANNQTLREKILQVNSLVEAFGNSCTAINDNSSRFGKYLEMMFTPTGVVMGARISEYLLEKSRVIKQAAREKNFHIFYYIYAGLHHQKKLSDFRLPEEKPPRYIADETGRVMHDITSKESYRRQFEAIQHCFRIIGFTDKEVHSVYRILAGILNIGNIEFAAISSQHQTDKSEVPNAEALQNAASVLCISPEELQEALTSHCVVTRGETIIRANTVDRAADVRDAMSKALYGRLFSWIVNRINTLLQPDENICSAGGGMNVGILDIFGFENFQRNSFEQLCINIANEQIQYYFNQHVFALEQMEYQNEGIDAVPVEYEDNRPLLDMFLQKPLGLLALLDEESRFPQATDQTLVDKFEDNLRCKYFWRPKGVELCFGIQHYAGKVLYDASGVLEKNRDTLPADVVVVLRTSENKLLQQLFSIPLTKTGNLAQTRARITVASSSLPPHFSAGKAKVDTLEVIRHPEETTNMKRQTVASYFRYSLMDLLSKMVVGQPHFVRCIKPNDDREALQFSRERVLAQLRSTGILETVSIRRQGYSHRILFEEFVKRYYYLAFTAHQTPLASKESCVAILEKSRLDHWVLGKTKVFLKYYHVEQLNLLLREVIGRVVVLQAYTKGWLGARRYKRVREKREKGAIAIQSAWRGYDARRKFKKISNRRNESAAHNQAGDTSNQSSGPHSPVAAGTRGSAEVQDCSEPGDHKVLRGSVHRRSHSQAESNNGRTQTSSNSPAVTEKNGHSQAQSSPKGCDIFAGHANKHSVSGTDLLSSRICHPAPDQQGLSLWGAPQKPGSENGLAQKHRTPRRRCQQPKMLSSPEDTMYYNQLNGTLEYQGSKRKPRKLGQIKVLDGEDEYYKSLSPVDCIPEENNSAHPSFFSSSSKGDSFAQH
Sequence of AAK1 (Q2M2I8 whole entry): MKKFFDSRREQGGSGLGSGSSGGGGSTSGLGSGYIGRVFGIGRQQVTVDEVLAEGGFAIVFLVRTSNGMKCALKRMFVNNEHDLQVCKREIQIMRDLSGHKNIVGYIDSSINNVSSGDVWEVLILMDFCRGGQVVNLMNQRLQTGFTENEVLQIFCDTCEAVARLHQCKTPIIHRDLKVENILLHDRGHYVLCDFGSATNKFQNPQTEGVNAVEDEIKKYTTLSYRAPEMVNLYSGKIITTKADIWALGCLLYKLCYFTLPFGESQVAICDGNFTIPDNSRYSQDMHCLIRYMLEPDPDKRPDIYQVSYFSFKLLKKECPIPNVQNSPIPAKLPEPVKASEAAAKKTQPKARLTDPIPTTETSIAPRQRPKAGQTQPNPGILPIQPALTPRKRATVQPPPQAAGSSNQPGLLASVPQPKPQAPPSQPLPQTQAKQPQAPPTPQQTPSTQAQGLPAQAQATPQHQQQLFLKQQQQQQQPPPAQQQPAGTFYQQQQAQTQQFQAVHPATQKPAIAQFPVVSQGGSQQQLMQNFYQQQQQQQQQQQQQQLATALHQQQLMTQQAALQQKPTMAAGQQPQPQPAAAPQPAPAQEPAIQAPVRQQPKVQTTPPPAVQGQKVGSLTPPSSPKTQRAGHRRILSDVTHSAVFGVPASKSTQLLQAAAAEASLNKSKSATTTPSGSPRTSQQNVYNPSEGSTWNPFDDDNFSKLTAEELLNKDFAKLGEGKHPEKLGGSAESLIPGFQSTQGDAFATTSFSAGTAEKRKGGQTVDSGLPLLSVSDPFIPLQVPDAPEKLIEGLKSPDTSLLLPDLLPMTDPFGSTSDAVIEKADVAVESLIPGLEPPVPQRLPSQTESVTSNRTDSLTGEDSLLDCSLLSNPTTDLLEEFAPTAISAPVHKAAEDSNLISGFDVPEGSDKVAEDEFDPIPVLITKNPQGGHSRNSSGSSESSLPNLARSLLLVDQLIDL
T6 sequence (O15111 whole entry): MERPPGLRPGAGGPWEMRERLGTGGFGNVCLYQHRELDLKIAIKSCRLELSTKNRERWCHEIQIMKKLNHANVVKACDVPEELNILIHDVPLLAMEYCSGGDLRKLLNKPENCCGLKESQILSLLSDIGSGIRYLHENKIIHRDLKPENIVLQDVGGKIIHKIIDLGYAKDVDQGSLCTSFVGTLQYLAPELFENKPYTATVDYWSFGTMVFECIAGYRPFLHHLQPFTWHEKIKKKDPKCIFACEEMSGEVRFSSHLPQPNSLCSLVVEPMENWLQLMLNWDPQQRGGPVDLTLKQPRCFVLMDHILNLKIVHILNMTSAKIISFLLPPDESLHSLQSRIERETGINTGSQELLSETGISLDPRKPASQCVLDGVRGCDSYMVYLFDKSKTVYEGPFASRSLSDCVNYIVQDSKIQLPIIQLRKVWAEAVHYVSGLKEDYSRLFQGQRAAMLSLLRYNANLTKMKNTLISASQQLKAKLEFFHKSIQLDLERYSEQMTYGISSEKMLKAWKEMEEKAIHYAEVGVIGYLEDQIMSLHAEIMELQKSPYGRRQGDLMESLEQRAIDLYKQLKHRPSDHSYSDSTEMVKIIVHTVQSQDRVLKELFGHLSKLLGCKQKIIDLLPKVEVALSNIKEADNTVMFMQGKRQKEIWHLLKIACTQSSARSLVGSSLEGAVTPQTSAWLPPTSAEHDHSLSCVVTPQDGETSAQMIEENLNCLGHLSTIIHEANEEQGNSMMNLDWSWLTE
Sequence of CAMK1D (Q8IU85 whole entry): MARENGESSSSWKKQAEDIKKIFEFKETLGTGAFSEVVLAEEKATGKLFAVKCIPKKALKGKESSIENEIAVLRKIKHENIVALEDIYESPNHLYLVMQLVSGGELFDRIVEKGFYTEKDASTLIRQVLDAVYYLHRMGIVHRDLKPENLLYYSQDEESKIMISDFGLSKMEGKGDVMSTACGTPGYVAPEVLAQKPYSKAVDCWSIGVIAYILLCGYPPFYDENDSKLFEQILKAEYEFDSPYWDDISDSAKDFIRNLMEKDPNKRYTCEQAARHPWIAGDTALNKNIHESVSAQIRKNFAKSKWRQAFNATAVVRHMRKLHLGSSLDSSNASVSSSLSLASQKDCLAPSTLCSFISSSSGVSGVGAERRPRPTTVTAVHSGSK

In the case of `O=C(/C=C/c1cnccc1-c1ccc(F)cc1)Nc1ccc(CCc2nnco2)cc1` [T-418, (2E)-3-(4-(4-fluorophenyl)pyridin-3-yl)-N-(4-(2-(1,3,4-oxadiazol-2-yl)ethyl)phenyl)acrylamide], the remaining binding at 0.3 µM (AAK1; sheet T-418) is reported as 83%, the remaining binding at 0.3 µM (BMPR2; sheet T-418) is reported as 86% and the remaining binding at 0.3 µM (CAMK1D; sheet T-418) is reported as 94%. The remaining binding at 0.3 µM (CAMK2A; sheet T-418) was 96%, the remaining binding at 0.3 µM (CDK4-cyclinD3; sheet T-418) was 95% and the remaining binding at 0.3 µM (CTK; sheet T-418) was 100%. For the same compound, the remaining binding at 0.3 µM (DCAMKL3; sheet T-418) was 83%, the remaining binding at 0.3 µM (DRAK1; sheet T-418) was 100% and the remaining binding at 0.3 µM (EPHA1; sheet T-418) was 71%. It also gave a remaining binding at 0.3 µM (FAK; sheet T-418) of 80%, a remaining binding at 0.3 µM (FGFR3(G697C); sheet T-418) of 66% and a remaining binding at 0.3 µM (GSK3A; sheet T-418) of 64%. The remaining binding at 0.3 µM (IKK-alpha; sheet T-418) was 100%, the remaining binding at 0.3 µM (KIT(V559D); sheet T-418) was 100% and the remaining binding at 0.3 µM (LATS1; sheet T-418) was 60%. For the same compound, the remaining binding at 0.3 µM (MET(Y1235D); sheet T-418) was 95%, the remaining binding at 0.3 µM (MYO3B; sheet T-418) was 52% and the remaining binding at 0.3 µM (PYK2; sheet T-418) was 88%. It also gave a remaining binding at 0.3 µM (RIPK5; sheet T-418) of 86%, a remaining binding at 0.3 µM (TAOK1; sheet T-418) of 100% and a remaining binding at 0.3 µM (TAOK3; sheet T-418) of 90%. For the same compound, the remaining binding at 0.3 µM (WNK1; sheet T-418) was 100%.
Compound `Cc1ncccc1Oc1sc(C(N)=O)c2c1-c1c(cnn1C)CC2` [T-474, 1-methyl-8-((2-methylpyridin-3-yl)oxy)-4,5-dihydro-1H-thieno[3,4-g]indazole-6-carboxamide] has a remaining binding at 0.3 µM (AAK1) of 93%, a remaining binding at 0.3 µM (BMPR2) of 99% and a remaining binding at 0.3 µM (CAMK1D) of 79%. The remaining binding at 0.3 µM (CAMK2A) was 97%, the remaining binding at 0.3 µM (CDK4-cyclinD3) was 98% and the remaining binding at 0.3 µM (CTK) was 100%. The remaining binding at 0.3 µM (DCAMKL3) was 76%, the remaining binding at 0.3 µM (DRAK1) was 100% and the remaining binding at 0.3 µM (EPHA1) was 73%. It also gave a remaining binding at 0.3 µM (FAK) of 88%, a remaining binding at 0.3 µM (FGFR3(G697C)) of 59% and a remaining binding at 0.3 µM (GSK3A) of 70%. It also gave a remaining binding at 0.3 µM (IKK-alpha) of 100%, a remaining binding at 0.3 µM (KIT(V559D)) of 100% and a remaining binding at 0.3 µM (LATS1) of 67%. It also gave a remaining binding at 0.3 µM (MET(Y1235D)) of 100%, a remaining binding at 0.3 µM (MYO3B) of 84% and a remaining binding at 0.3 µM (PYK2) of 100%. The remaining binding at 0.3 µM (RIPK5) was 100%, the remaining binding at 0.3 µM (TAOK1) was 95% and the remaining binding at 0.3 µM (TAOK3) was 88%. For the same compound, the remaining binding at 0.3 µM (WNK1) was 100%.
